Assay results reported in patent US6740306B2, “Imidazotriazinone-containing compositions for nasal administration” (Bayer Aktiengesellschaft, priority 2002, dated 2004).
Entries after “also recorded” stand apart in the source; their conditions may differ.

Test: Benzyl alcohol as additive on nasal administration of cGMP PDE inhibitors
Type: in vivo

OCc1ccccc1 [benzyl alcohol]
Ability to reduce or prevent the disadvantages occurring on nasal administration of cGMP PDE inhibitors: unable to reduce or prevent the disadvantages; also recorded: unsuitable for overcoming the disadvantages | Local irritation of the nasal mucosa: led to local irritation of the nasal mucosa
